Experimental data: patent publication US12264156B2, “Compounds and pharmaceutical compositions thereof for the treatment of diseases” (GALAPAGOS NV, priority 2018, dated 2025)

Tests used:
[1] = system: mouse CIA model; test: Collagen induced arthritis (CIA) model; assay type: in vivo; set-up: key: per paw 0 = none to 4 = maximal; sum of 4 paws, max 16
Experimental: Completed Freund's adjuvant (CFA) and incomplete Freund's adjuvant (IFA) were purchased from Difco. Bovine collagen type II (CII), lipopolysaccharide (LPS), and Enbrel® (etanercept) were obtained from Chondrex (L'Isle d'Abeau, France); Sigma (P4252, L'Isle d'Abeau, France), Whyet (25 mg injectable syringe, France), respectively. All other reagents used were of reagent grade and all solvents were of analytical grade.
DBA1/J mice (male, 7-8 weeks old) were obtained from Charles River Laboratories (Écully, France). Mice were kept on a 12 h light/dark cycle. Temperature was maintained at 22° C., and food and water were provided ad libitum.
One day before the experiment, CII solution (2 mg/mL) was prepared with 0.05 M acetic acid and stored at 4° C. Just before the immunization, equal volumes of adjuvant […] and CII were mixed by a homogenizer in a pre-cooled glass bottle in an ice water bath. Extra adjuvant and prolonged homogenization may be required if an emulsion is not formed. 0.2 mL of the emulsion was injected intradermally at the base of the tail of each mouse on day 1, a second booster intradermal injection (CII solution at 2 mg/mL in […]) was performed on […]. This immunization method was modified from published methods (Jou et al. 2005; Sims et al. 2004).
The therapeutic effects of the compounds were tested in the mouse CIA model. Mice were randomly divided into equal groups and each group contained 10 mice. All mice were immunized on day 1 and boosted on day 21. The negative control group was treated with vehicle (MC 0.5%) and the positive control group with Enbrel® (10 mg/kg, 3× week., sc). A compound of interest was typically tested at 3 doses per os (p.o.). At day 32, randomization between groups was performed with respect with clinical score and animals were therapeutically treated regarding their group until day 47. Body weight and clinical score, were recorded at least twice a week.
Arthritis is scored according to the method of Khachigian 2006, Lin et al 2007 and Nishida et al. 2004 (Khachigian 2006; Lin et al. 2007; Nishida et al. 2004). The swelling of each of the four paws is ranked with the arthritic score as follows: 0-no symptoms; 1-mild, but definite redness and swelling of one type of joint such as the ankle or wrist, or apparent redness and swelling limited to individual digits, regardless of the number of affected digits; 2-moderate redness and swelling of two or more types of joints; 3-severe redness and swelling of the entire paw including digits; 4-maximally inflamed limb with involvement of multiple joints (maximum cumulative clinical arthritis score 16 per animal) (Nishida et al. 2004).

[2] = system: mouse T cell transfer model; test: T cell transfer model (mice); assay type: in vivo; conditions: 30 mg/kg p.o. b.i.d.
Text: DynaMag (Cat #12321D and 123203D) were obtained from Life Technologies Invitrogen (California, USA); DynabeadsFlowComp Mouse CD4+CD25-treg cells (Cat #11463D) were obtained from Life Technologies Invitrogen (California, USA), Fetal Bovine Serum (GIBCO), Cat #10270-106; RPMI (Gibco) Cat #32404-014 and D-PBS 1× without CaCl2 without MgCl2 (GIBCO), Cat #14190-086 were obtained ThermoFisher Scientific (Massachusetts, USA). Red Blood Cell (RBC) lysis buffer 10×, Cat #BLE420301 obtained from Ozyme (Montigny-le-Bretonneux, France). Cell strainer (70 μm grid), Cat #352350, obtained from Corning (New York, USA). […]
Fourteen days after cell injection, 100 μL of blood was sampled on each mouse under anesthesic conditions in order to determine CD4 level. […] Disease activity index was determined twice a week. Four to six weeks after the start of treatment, mice were sacrificed, blood was sampled and the complete colon was removed and rinsed with sterile PBS, it was measured and weighed in order to determine colon weight/length ratio. […]
There were 12 mice per group. The results were expressed as mean±SEM and statistical analysis was performed using non parametric test Kruskal-Wallis with Dunn's Multiple comparison test versus vehicle groups. […]

SMILES: COc1cc(-c2cnc3cc(OCCN4CCOCC4)ccn23)cc2c1C(=O)N(CC(F)(F)F)CC2 [Cpd 88, 8-methoxy-6-[7-(2-morpholinoethoxy)imidazo [1,2-a]pyridin-3-yl]-2-(2,2,2-trifluoroethyl)-3,4-dihydroisoquinolin-1-one]
- CIA clinical score ([1]; 10 mg/kg b.i.d. p.o., day 32): 2.7
- CIA clinical score ([1]; 10 mg/kg b.i.d. p.o., day 33): 3.1
- CIA clinical score ([1]; 10 mg/kg b.i.d. p.o., day 35): 3.6
- CIA clinical score ([1]; 10 mg/kg b.i.d. p.o., day 36): 4.1
- CIA clinical score ([1]; 10 mg/kg b.i.d. p.o., day 39): 4.4
- CIA clinical score ([1]; 10 mg/kg b.i.d. p.o., day 40): 4.8
- CIA clinical score ([1]; 10 mg/kg b.i.d. p.o., day 41): 4.5
- CIA clinical score ([1]; 10 mg/kg b.i.d. p.o., day 42): 4.9
- CIA clinical score ([1]; 10 mg/kg b.i.d. p.o., day 43): 5.1
- CIA clinical score ([1]; 10 mg/kg b.i.d. p.o., day 46): 8.0
- CIA clinical score ([1]; 10 mg/kg b.i.d. p.o., day 47): 7.9
- CIA clinical score ([1]; 30 mg/kg b.i.d. p.o., day 32): 2.7
- CIA clinical score ([1]; 30 mg/kg b.i.d. p.o., day 33): 2.7
- CIA clinical score ([1]; 30 mg/kg b.i.d. p.o., day 35): 3.4
- CIA clinical score ([1]; 30 mg/kg b.i.d. p.o., day 36): 3.8
- CIA clinical score ([1]; 30 mg/kg b.i.d. p.o., day 39): 4.5
- CIA clinical score ([1]; 30 mg/kg b.i.d. p.o., day 40): 4.7
- CIA clinical score ([1]; 30 mg/kg b.i.d. p.o., day 41): 4.7
- CIA clinical score ([1]; 30 mg/kg b.i.d. p.o., day 42): 5.2
- CIA clinical score ([1]; 30 mg/kg b.i.d. p.o., day 43): 4.6
- CIA clinical score ([1]; 30 mg/kg b.i.d. p.o., day 46): 6.1
- CIA clinical score ([1]; 30 mg/kg b.i.d. p.o., day 47): 5.4
- CIA clinical score ([1]; 60 mg/kg b.i.d. p.o., day 32): 2.7
- CIA clinical score ([1]; 60 mg/kg b.i.d. p.o., day 33): 2.7
- CIA clinical score ([1]; 60 mg/kg b.i.d. p.o., day 35): 3.1
- CIA clinical score ([1]; 60 mg/kg b.i.d. p.o., day 36): 2.8
- CIA clinical score ([1]; 60 mg/kg b.i.d. p.o., day 39): 3.3
- CIA clinical score ([1]; 60 mg/kg b.i.d. p.o., day 40): 3.0
- CIA clinical score ([1]; 60 mg/kg b.i.d. p.o., day 41): 2.7
- CIA clinical score ([1]; 60 mg/kg b.i.d. p.o., day 42): 2.8
- CIA clinical score ([1]; 60 mg/kg b.i.d. p.o., day 43): 2.3
- CIA clinical score ([1]; 60 mg/kg b.i.d. p.o., day 46): 2.8
- CIA clinical score ([1]; 60 mg/kg b.i.d. p.o., day 47): 2.5
- AUC of DAI vs. vehicle group [2]: statistical significant reduction of AUC of DAI
